Measurements taken from patent US20030215840A1, “Methods and compositions for treating cardiovascular disease using 1682, 6169, 6193, 7771, 14395, 29002, 33216, 43726, 69292, 26156, 32427, 2402, 7747, 1720, 9151, 60491, 1371, 7077, 33207, 1419, 18036, 16105, 38650, 14245, 58848, 1870, 25856, 32394, 3484, 345, 9252, 9135, 10532, 18610, 8165, 2448, …” (Millennium Pharmaceuticals, Inc., priority 2002, published 2003).

Key:
29002 mRNA [1] = test: TaqMan analysis of 29002 mRNA in stimulated endothelial cells; assay type: cell-based
Procedure: (§1) This example describes the TaqMan™ procedure. […] The TaqMan™ probe includes the oligonucleotide with a fluorescent reporter dye covalently linked to the 5′ end of the probe (such as FAM (6-carboxyfluorescein), TET (6-carboxy-4,7,2′,7′-tetrachlorofluorescein), JOE (6-carboxy-4,5-dichloro-2,7-dimethoxyfluorescein), or VIC) and a quencher dye (TAMRA (6-carboxy-N,N,N′,N′-tetramethylrhodamine) at the 3′ end of the probe.
(§2) RNA was prepared using the trizol method and treated with DNase to remove contaminating genomic DNA. cDNA was synthesized using standard techniques.

32135 mRNA = conditions: niacin models
Description: (§3) This example describes the TaqMan™ procedure. The Taqman™ procedure is a quantitative, reverse transcription PCR-based approach for detecting mRNA. The RT-PCR reaction exploits the 5′ nuclease activity of AmpliTaq Gold™ DNA Polymerase to cleave a TaqMan™ probe during PCR. Briefly, cDNA was generated from the samples of interest, e.g., heart, kidney, liver, skeletal muscle, and various vessels, and used as the starting material for PCR amplification. In addition to the 5′ and 3′ gene-specific primers, a gene-specific oligonucleotide probe (complementary to the region being amplified) was included in the reaction (i.e., the Taqman™ probe). […]
(§4) During the PCR reaction, cleavage of the probe separates the reporter dye and the quencher dye, resulting in increased fluorescence of the reporter. Accumulation of PCR products is detected directly by monitoring the increase in fluorescence of the reporter dye. When the probe is intact, the proximity of the reporter dye to the quencher dye results in suppression of the reporter fluorescence. […]

17799 mRNA = conditions: niacin marmoset models
Description: as §3, §4

6169 mRNA = test: TaqMan analysis of 6169 mRNA in an African Green Monkey model of atherosclerosis; assay type: in vivo
Procedure: as §1, §2

21833 mRNA = test: TaqMan analysis of 21833 in cultured human monocytes and macrophages; assay type: cell-based; conditions: after stimulation
Procedure: as §1, §2

29002 mRNA [2] = test: TaqMan analysis of 29002 mRNA in stimulated macrophages; assay type: cell-based
Procedure: as §1, §2

CC[C@H](C)C(=O)O[C@H]1CCC=C2C=C[C@H](C)[C@H](CC[C@@H]3C[C@@H](O)CC(=O)O3)[C@H]21 [mevastatin, reference compound]
29002 mRNA expression (29002 mRNA [1]): down-regulated

O=C(O)c1cccnc1 [niacin]
32135 mRNA expression (32135 mRNA): repressed | 17799 mRNA expression (17799 mRNA): repressed

n-3 polyunsaturated fatty acid
6169 mRNA expression (6169 mRNA): repressed

B1: interferon gamma: interferon gamma used to stimulate monocytes and macrophages (protein, UniProt P01579 24-161, looked up)
Interferon gamma: QDPYVKEAENLKKYFNAGHSDVADNGTLFLGILKNWKEESDRKIMQSQIVSFYFKLFKNFKDDQSIQKSVETIKEDMNVKFFNSNKKKRDDFEKLTNYSVTDLNVQRKAIHELIQVMAELSPAAKTGKRKRSQMLFRG
21833 expression (21833 mRNA): upregulated

B2: CD40 ligand: CD40 ligand used to stimulate macrophages (protein, UniProt P29965 113-261, looked up)
CD40 ligand, soluble form: MQKGDQNPQIAAHVISEASSKTTSVLQWAEKGYYTMSNNLVTLENGKQLTVKRQGLYYIYAQVTFCSNREASSQAPFIASLCLKSPGRFERILLRAANTHSSAKPCGQQSIHLGGVFELQPGASVFVNVTDPSQVSHGTGFTSFGLLKL
21833 expression (21833 mRNA): upregulated | 29002 mRNA expression (29002 mRNA [2]): upregulated
